Source: paper PMC5823406, “Vehicle development, pharmacokinetics and toxicity of the anti-invasive agent 4-fluoro-3’,4’,5’-trimethoxychalcone in rodents” (PLoS ONE, 2018)
Where two headings read alike, the source gives them in different places.

Assay: Whole-blood PK study (IV, IP and PO) in male CD-1 mice
Format: in vivo, mouse
Conditions: for Bioavailability: read-out: Bioavailability; for cmax: read-out: cmax; for concentration at 0.5 h: 0.50 h; for Vd: read-out: Vss; for Tmax: CD-1, whole blood
Experimental: Nine male CD-1 mice (25–35 g) were obtained from Hilltop Labs. Duration of acclimation was at least two days. Animals were randomly assigned to the three dose groups (IV, PO, intraperitoneal (IP), N = 3 per group), healthy at the start of the trial, housed one per cage (conventional type with wood chip bedding material), identified by a cage label and maintained in a well-controlled temperature (20–24 C) and humidity (30%-70%) environment with 12 h light/dark cycles. Animals intended for IV dosing were fitted with a jugular vein cannula (JVC, procedure see rat plasma PK study above). The study was not blinded. Food was withheld from the animals for a minimum of 12 h prior to test article administration until 4 h post-dose. Water was offered ad libitum.
C16 was dosed in cassette together with two undisclosed compounds of similar chemical structure. The dose of each test article was 1 mg/kg (IV, JVC, 0.5 mg/mL) or 10 mg/kg (IP and PO gavage, 2 mg/mL). Two respective dosing solutions were prepared (protocol see above) containing 0.5 and 2 mg/mL of C16 (and equal concentrations of the other two test articles) in 20% DMSO / 10% (DMSO / Cremophor EL 1:1) / 70% H2O. Formulations were prepared one day prior to dosing and stored at 4 °C.
Blood samples were taken pre-dose and 5 (except for PO administration), 15, 30 min, 1, 2, 4, and 8 h after dosing. The samples were collected via the tail vein or by cardiac puncture (8 h time point). Blood (25 μL) was collected and pipetted into a tube with 25 μL heparinized water (1 μL of sodium heparin (1000 unit/ml) + 24 μL water) within 30 seconds of collection. The sample was pipetted up and down five times, immediately frozen on dry ice and stored at -60°C to -80°C until analyzed. No necropsy was performed.
Pharmacokinetic parameters were estimated by a non-compartmental model using WinNonlin (v5.2.1 or higher) software. The maximum plasma/blood concentrations (c0) after IV dosing were estimated by extrapolation of the first two time points back to t = 0. The maximum blood concentration (cmax) and the time to reach maximum blood drug concentration (tmax) after PO dosing were derived from the data. The area under the time-concentration curve (AUC) was calculated using the linear trapezoidal rule with calculation to the last quantifiable data point, and with extrapolation to infinity if applicable. Plasma/blood half-life (t1/2) was calculated from 0.693/slope of the terminal elimination phase. Mean residence time (MRT) was calculated by dividing the area under the moment curve (AUMC) by the AUC. Clearance (CL) was calculated from dose/AUC. Steady-state volume of distribution (Vss) was calculated from CL*MRT. Bioavailability was determined by dividing the individual dose-normalized PO AUC values by the respective average dose-normalized intravenous (IV) AUC value. Samples that were below the limit of quantification were not used in the calculation of averages, and were treated as zero for pharmacokinetic data analysis. […]
Sprague-Dawley rats at 10 mg/kg (in 100% DMSO). […]
c Bioavailability determined by dividing the individual dose normalized oral AUC last by the average dose normalized intravenous AUC last value. […]
The dosing solution was prepared as a cassette to contain all three test articles in the same solutions using a vehicle
consisting of 20% DMSO/10% (DMSO/Cremophor EL 1:1)/70% Milli-Q water.
Individual blood concentrations and pharmacokinetic parameters are shown in Table H through Table J. All data are
expressed as ng/mL of the free drug. Samples that were below the limit of quantification were not used in the
calculation of averages. Concentration versus time data are plotted in Fig D through Fig F.
Table H. Individual blood concentrations (ng/mL) and PK parameters for C16 after IV administration in male CD-1 mice at 1 mg/kg.
t (h) 0 (pre-dose) BLOQ BLOQ BLOQ
(1 picture or pasted object on this page, not shown here)

[1] = male, CD-1, mouse, whole blood, ip, 10 mg/kg, male CD-1 mouse, IP 10 mg/kg, average
[2] = male, CD-1, mouse, whole blood, ip, 10 mg/kg, mouse blood, IP 10 mg/kg, individual animals 4-6
[3] = male, CD-1, mouse, whole blood, ip, 10 mg/kg, mouse, IP 10 mg/kg, animals 4-6, read-out: Individual blood concentration
[4] = male, CD-1, mouse, whole blood, ip, 10 mg/kg, whole blood, male CD-1 mouse, IP 10 mg/kg, average
[5] = male, CD-1, mouse, whole blood, iv, 1 mg/kg, male CD-1 mouse, IV 1 mg/kg, average
[6] = male, CD-1, mouse, whole blood, iv, 1 mg/kg, mouse blood, IV 1 mg/kg, individual animals 1-3
[7] = male, CD-1, mouse, whole blood, iv, 1 mg/kg, mouse, IV 1 mg/kg, animals 1-3, read-out: Individual blood concentration
[8] = male, CD-1, mouse, whole blood, po, 10 mg/kg, male CD-1 mouse, PO 10 mg/kg, average
[9] = male, CD-1, mouse, whole blood, po, 10 mg/kg, mouse blood, PO 10 mg/kg, individual animals 7-9
[10] = male, CD-1, mouse, whole blood, po, 10 mg/kg, whole blood, male CD-1 mouse, PO 10 mg/kg, average

COc1cc(C(=O)/C=C/c2ccc(F)cc2)cc(OC)c1OC [C16, 4-fluoro-3’,4’,5’-trimethoxychalcone]
time of maximum blood concentration (male CD-1 mouse, IP 10 mg/kg): 15 min | time of maximum blood concentration (male CD-1 mouse, PO 10 mg/kg): 15 min | AUC(0-inf) [1]: 114 ng·h/mL | AUC(0-t) [1]: 109 ng·h/mL | MRT last [1]: 48 min | half-life [1]: 48 min | AUC(0-inf) [2]: 101 ng·h/mL | AUC(0-t) [2]: 99.2 ng·h/mL | MRT last [2]: 59.5 min | half-life [2]: 38.2 min | Bioavailability [2]: 49.7% | cmax [2]: 90.3 ng/mL | concentration at 0.25 h [3]: 90.3 ng/mL | concentration at 0.5 h [3]: 48.2 ng/mL | concentration at 1 h [3]: 49.2 ng/mL | concentration at 2 h [3]: 13.4 ng/mL | Bioavailability [4]: 54.7% | cmax [4]: 107 ng/mL | AUC(0-inf) [5]: 22.4 ng·h/mL | AUC(0-t) [5]: 20 ng·h/mL | MRT last [5]: 26 min | clearance [5]: 750 mL/min/kg | half-life [5]: 44.8 min | C0 (male, CD-1, mouse, whole blood, iv, 1 mg/kg, male CD-1 mouse, IV 1 mg/kg, average, extrapolated to t = 0): 76 ng/mL | AUC(0-inf) [6]: 22.9 ng·h/mL | AUC(0-t) [6]: 20.2 ng·h/mL | MRT last [6]: 25.6 min | clearance [6]: 727 mL/min/kg | half-life [6]: 49.4 min | Vd [6]: 32.8 L/kg | concentration at 0.083 h (male, CD-1, mouse, whole blood, iv, 1 mg/kg, mouse, IV 1 mg/kg, 0.083 h, animals 1-3, read-out: Individual blood concentration): 46.4 ng/mL | concentration at 0.25 h [7]: 17.3 ng/mL | concentration at 0.5 h [7]: 8.4 ng/mL | concentration at 1 h [7]: 4.5 ng/mL | concentration at 2 h [7]: 2.28 ng/mL | Vd (male, CD-1, mouse, whole blood, iv, 1 mg/kg, whole blood, male CD-1 mouse, IV 1 mg/kg, average): 32.6 L/kg | AUC(0-t) [8]: 20.9 ng·h/mL | MRT last [8]: 82.8 min | half-life (male, CD-1, mouse, whole blood, po, 10 mg/kg, mouse blood, PO 10 mg/kg, individual animal 7): 176 min | AUC(0-t) [9]: 23.2 ng·h/mL | Bioavailability [9]: 11.6% | Bioavailability [10]: 10.5% | cmax [10]: 12.5 ng/mL | Tmax (male, mouse blood, IP 10 mg/kg, individual animals 4-6): 15 min | Tmax (male, mouse blood, IV 1 mg/kg, individual animals 1-3): 0 min
